Assay results reported in patent US4407810A, “Thiazol-2-yl-oxamic acid derivatives, and therapeutic agents containing these compounds” (BASF Aktiengesellschaft, priority 1980, dated 1983).

Legend:
[1] = acute toxicity, rats, oral; conditions: rat, in vivo, Sprague-Dawley rats, 14 days post-observation, read-out: LD 50, rats oral
Description: (§1) In addition to the anti-allergic action, the acute toxicity was determined for intraperitoneal administration, using groups of 2 NMRI mice, each weighing 20-26 g, and for oral administration, using groups of 2 Sprague-Dawley rats, each weighing 120-150 g. The LD 50 was determined on groups of 10 NMRI mice, each weighing 20-26 g, after intraperitoneal administration. The post-observation period was 14 days.

[2] = system: passive cutaneous anaphylaxis (PCA); experiment: anti-allergic action, passive cutaneous anaphylaxis (PCA) model in rats; format: in vivo; conditions: for ED50: Rattus norvegicus, dose which reduces diameter of color patch by 50% vs non-medicated controls, read-out: Inhibition of PCA in rats (oral), ED 50%; for times more active than Comparative Compound V1 / R.A. (relative activity): PCA in rats; for times more active than Comparative Compound V1: after oral administration; for R.A. (relative activity): relative to V1 (=1)
Description: The anti-allergic action was tested on rats, using the passive cutaneous anaphylaxis (PCA) model.
Narcotized male rats (100-140 g) are sensitized by intradermal injection (into the shaved dorsal skin) of 0.1 ml of an ovalbumin antiserum. After a sensitization period of about 48 hours, the treatment (intraperitoneal or oral administration) is carried out with various dosages (10 animals/dose)of the test substances. 15-20 minutes after treatment, an antigen/Evans blue mixture (10 mg/kg of ovalbumin in 2% strength Evans blue solution) is intravenously injected into the test animals. 30 minutes later, the animals are sacrificed, the dorsal skin is removed and the diameter of the circular blue coloration is measured on the inner surface. The size of the color patches of untreated control animals can be standardized. Anti-allergic substances reduce the diameter of the color patch by an amount dependent on the dose. The ED 50% is quoted as the dose which reduces the diameter of the color patch by 50% relative to that of non-medicated control animals.

[3] = acute toxicity (LD 50), mice, intraperitoneal; conditions: mouse, in vivo, ip, NMRI mice, 14 days post-observation
Description: as §1

For `O=C(O)c1cc(=O)c2c(OCC(O)COc3cccc4oc(C(=O)O)cc(=O)c34)cccc2o1` [Cromolyne, reference compound], the LD50 at 336 h [1] was greater than 2150 mg/kg, the ED50 ([2]; rats, oral) was 100 mg/kg and the “activity in PCA (in words)” value ([2]; rats, oral, up to 100 mg/kg) was “inactive”.

With `COCCOC(=O)C(=O)Nc1nc(-c2ccccc2)cs1` [Example 7, 2-Methoxyethyl N-(4-phenyl-thiazol-2-yl)-oxamate] the LD50 at 336 h [1] was greater than 2150 mg/kg, the “times more active than Comparative Compound V1” value [2] was 3.87 times and the “R.A. (relative activity)” value ([2]; oral) was 3.87. For the same molecule, the ED50 ([2]; rats, oral) was 2.24 mg/kg and the LD50 at 336 h [3] was 655 mg/kg.

With `CCOCCOC(=O)C(=O)Nc1nc(-c2ccccc2)cs1` [Example 9, 2-Ethoxyethyl N-(4-phenyl-thiazol-2-yl)-oxamate] the LD50 at 336 h [1] was greater than 2150 mg/kg, the “times more active than Comparative Compound V1” value [2] was 227 times and the “R.A. (relative activity)” value ([2]; oral) was 227. For the same molecule, the ED50 ([2]; rats, oral) was 0.0382 mg/kg and the LD50 at 336 h [3] was 956 mg/kg.

For `COCCOCCOC(=O)C(=O)Nc1nc(-c2ccccc2)cs1` [Example 11, 2-(ω-Methoxyethyleneoxy)-ethyl N-(4-phenyl-thiazol-2-yl)-oxamate], the LD50 at 336 h [1] was greater than 2150 mg/kg, the “R.A. (relative activity)” value ([2]; oral) was 4.01 and the ED50 ([2]; rats, oral) was 2.16 mg/kg. The LD50 at 336 h [3] was 705 mg/kg.

For `CCOCCOC(=O)C(=O)Nc1nc(-c2ccc(OC)cc2)cs1` [Example 14, 2-Ethoxyethyl N-[4-(4-methoxyphenyl)-thiazol-2-yl]-oxamate], the “R.A. (relative activity)” value ([2]; oral) was 14.0, the ED50 ([2]; rats, oral) was 0.619 mg/kg and the LD50 at 336 h [3] was roughly 1000 mg/kg.

In the case of `CCOC(=O)C(=O)Nc1nc(-c2ccccc2)cs1` [Example V1, ethyl N-(4-phenyl-thiazol-2-yl)-oxamate, reference compound], the LD50 at 336 h [1] is reported as greater than 2150 mg/kg, the “R.A. (relative activity)” value ([2]; oral) is reported as 1 and the ED50 ([2]; rats, oral) is reported as 8.67 mg/kg. It also gave an LD50 at 336 h [3] of roughly 681 mg/kg.
